Measurements as given in patent US20250276999A1, “PEPTIDES FOR PROMOTING HAIR FOLLICLE NEOGENESIS, AND PREVENTION/MITIGATION OF UNTOWARD EFFECTS OF RADIATION TREATMENT” (Trustees of Tufts College, priority 2022, published 2025).

System: hair follicle neogenesis
Assay: Patch assay, hair follicle neogenesis in vivo
Parameters: species or system nu/nu mouse
Conditions: 100 μM peptide vs scrambled peptide, N=3 patches (FIG. 2)
Protocol: Next, we used a patch assay to test is TSN peptides can induce hair follicle neogenesis in vivo. Epidermal aggregates were resuspended in DMEM/F12 at 750,000 aggregates/750 μL (1000 aggregates/μL) and spheroids were resuspended in DMEM/F12 at 1400 spheroids/140 μL (10 spheroids/μL). 10 million dermal cells were resuspended in 400 μL DMEM/F12 (25,000 cell/μL or 1.25E6 per 50 μL). […] Using a dissecting microscope the number of hair follicles were counted for each implantation from the mucosal side of the skin (FIG. 2).
Preparation of spheroids: Dermal Papilla (DP) cells were trypsinized, neutralized and counted. […]
Preparation of epidermal Cell aggregates: From 12 neonatal foreskins, the epidermis was separated from the dermis using dispase incubation overnight. […] The final pellet was resuspended in 6 mL DMEM/F12 (for 12 skins) and the aggregates were counted using hemocytometer. […]

HSPDIQLQKGLTFEPIQIK [TSN6, 19 amino acid peptide derived from multimerin-1, Coiled coil domain]
number of hair follicles (hair follicle formation): two-fold increase
